Laboratory results as given in patent US7547716B2, “Sulfonamide derivatives” (Institute of Medicinal Molecular Design, Inc., priority 2001, dated 2009).
Structures can show the parent of a compound that is named as a salt.

These compounds were tested on Jurkat cells (assay: Jurkat cell proliferation, compound alone or combined with bleomycin, living cells counted by MTS method). Conditions: enhancement of the decrease in Jurkat cell survival rate by bleomycin 5 μg/ml or 10 μg/ml, 36 hours incubation.
Assay type: cell-based
Set-up: key: ++ indicates observation of remarkable enhancement; + indicates moderated enhancement
Experimental: By using the compounds synthesized above, effects on proliferation of Jurkat cells by sole administration and inhibitory effects on cell proliferation by administration in combination with bleomycin were examined. Materials and methods are as follows. Jurkat cells obtained from Dainippon Pharmaceutical Co. Ltd. were inoculated at about 10,000 cells per well in a 96 well culture plate, and incubated in 10% bovine fetal serum (Irvine Scientific) supplemented with RPMI1640(ICN) medium in 5% CO2 incubator at 37° C. […] 36 hours after the incubation, the number of living cells was counted by the MTS method.
More specifically, 20 μl of CellTiter96™ AQueous One Solution (Promega) was added per one well, and after the cells were incubated for additional one hour, an absorbance at 490 nm was measured by using a microplate reader. The same culture added with DMSO as a solvent at final concentration of 0.25% was used as a control. The number of cells in the control was considered as 100% survival rate, and for each compound, survival rates by sole administration or a combined administration were calculated.

| Compound | Activity |
| --- | --- |
| Nc1cccc2c(S(=O)(=O)NCc3ccc([N+](=O)[O-])cc3)cccc12 [Compound 42, 5-amino-N-[(4-nitrophenyl)methyl]-1-naphthalenesulfonamide hydrochloride] | ++ |
| CC(NS(=O)(=O)c1cccc2c(N)cccc12)c1cccc2ccccc12 (stereo not drawn) [Compound 56, 5-amino-N-[1-(1-naphthalenyl)ethyl]-1-naphthalenesulfonamide hydrochloride] | + |
| Nc1cccc2c(S(=O)(=O)NCc3ccc(C(F)(F)F)cc3)cccc12 [Compound 21, 5-amino-N-[[4-(trifluoromethyl)phenyl]methyl]-1-naphthalenesulfonamide hydrochloride] | ++ |
| CC(NS(=O)(=O)c1cccc2c(N)cccc12)c1ccccc1 (stereo not drawn) [Compound 55, 5-amino-N-(1-phenylethyl)-1-naphthalenesulfonamide] | + |
| Nc1cccc2c(S(=O)(=O)NCc3ccccc3Cl)cccc12 [Compound 3, 5-amino-N-[(2-chlorophenyl)methyl]-1-naphthalenesulfonamide hydrochloride] | + |
| Nc1cccc2c(S(=O)(=O)NCc3cccc4ccccc34)cccc12 [Compound 1, 5-amino-N-[(1-naphthalenyl)methyl]-1-naphthalenesulfonamide hydrochloride] | + |
| Nc1cccc2c(S(=O)(=O)NCc3c(F)cccc3F)cccc12 [Compound 12, 5-amino-N-[(2,6-difluorophenyl)methyl]-1-naphthalenesulfonamide hydrochloride] | ++ |
| Nc1cccc(CNS(=O)(=O)c2cccc3c(N)cccc23)c1 [Compound 44, 5-amino-N-[(3-aminophenyl)methyl]-1-naphthalenesulfonamide dihydrochloride] | + |
| COc1ccccc1CNS(=O)(=O)c1cccc2c(N)cccc12 [Compound 24, 5-amino-N-[(2-methoxyphenyl)methyl]-1-naphthalenesulfonamide hydrochloride] | ++ |
| Nc1cccc2c(S(=O)(=O)NC3CCCc4ccccc43)cccc12 (stereo not drawn) [Compound 58, 5-amino-N-(1,2,3,4-tetrahydro-1-naphthalenyl)-1-naphthalenesulfonamide] | + |
| Nc1cccc2c(S(=O)(=O)NCc3cccc(OCc4ccccc4)c3)cccc12 [Compound 35, 5-amino-N-[[3-(phenylmethoxy)phenyl]methyl]-1-naphthalenesulfonamide hydrochloride] | + |
| Nc1ccccc1CNS(=O)(=O)c1cccc2c(N)cccc12 [Compound 43, 5-amino-N-[(2-aminophenyl)methyl]-1-naphthalenesulfonamide dihydrochloride] | + |
| Nc1cccc2c(S(=O)(=O)NCc3ccccn3)cccc12 [Compound 53, 5-amino-N-(2-pyridinylmethyl)-1-naphthalenesulfonamide dihydrochloride] | + |
| COc1cccc(CNS(=O)(=O)c2cccc3c(N)cccc23)c1OC [Compound 28, 5-amino-N-[(2,3-dimethoxyphenyl)methyl]-1-naphthalenesulfonamide hydrochloride] | ++ |
| Nc1cccc2c(S(=O)(=O)NCc3ccc(C(=O)O)cc3)cccc12 [Compound 48, 4-[[[(5-amino-1-naphthalenyl)sulfonyl]-amino]methyl]benzoic acid hydrochloride] | + |
| Cc1ccccc1CNS(=O)(=O)c1cccc2c(N)cccc12 [Compound 15, 5-amino-N-[(2-methylphenyl)methyl]-1-naphthalenesulfonamide hydrochloride] | + |
| 5-amino-N-[[[4′-methyl-1,1′-biphenyl]-2-yl]methyl]-1-naphthalenesulfonamide hydrochloride [Compound 23] | + |
| CC(C)(C)c1ccc(CNS(=O)(=O)c2cccc3c(N)cccc23)cc1 [Compound 18, 5-amino-N-[[4-(1,1-dimethylethyl)phenyl]methyl]-1-naphthalenesulfonamide hydrochloride] | ++ |
| COc1cc(CNS(=O)(=O)c2cccc3c(N)cccc23)cc(OC)c1 [Compound 31, 5-amino-N-[(3,5-dimethoxyphenyl)methyl]-1-naphthalenesulfonamide hydrochloride] | ++ |
| 5-amino-N-[(2-fluorophenyl)methyl-1-naphthalenesulfonamide hydrochloride [Compound 9] | + |
| COc1ccc(CNS(=O)(=O)c2cccc3c(N)cccc23)cc1 [Compound 26, 5-amino-N-[(4-methoxyphenyl)methyl]-1-naphthalenesulfonamide hydrochloride] | + |
| Nc1cccc2c(S(=O)(=O)NCc3ccc(Cl)cc3)cccc12 [Compound 5, 5-amino-N-[(4-chlorophenyl)methyl]-1-naphthalenesulfonamide hydrochloride] | + |
| Nc1cccc2c(S(=O)(=O)NCc3cccc(O)c3)cccc12 [Compound 38, 5-amino-N-[(3-hydroxyphenyl)methyl]-1-naphthalenesulfonamide hydrochloride] | + |
| Nc1cccc2c(S(=O)(=O)Nc3ccccc3)cccc12 [Compound 64, 5-amino-N-phenyl-1-naphthalenesulfonamide hydrochloride] | + |
| Nc1cccc2c(S(=O)(=O)NCc3cccc([N+](=O)[O-])c3)cccc12 [Compound 41, 5-amino-N-[(3 nitrophenyl)methyl]-1-naphthalenesulfonamide hydrochloride] | ++ |
| COc1cccc(CNS(=O)(=O)c2cccc3c(N)cccc23)c1 [Compound 25, 5-amino-N-[(3-methoxyphenyl)methyl]-1-naphthalenesulfonamide hydrochloride] | ++ |
| Nc1cccc2c(S(=O)(=O)NCc3ccccc3C(F)(F)F)cccc12 [Compound 19, 5-amino-N-[[2-(trifluoromethyl)phenyl]methyl]-1-naphthalenesulfonamide hydrochloride] | ++ |
| Nc1cccc2c(S(=O)(=O)NCc3ccc(Cl)cc3Cl)cccc12 [Compound 6, 5-amino-N-[(2,4-dichlorophenyl)methyl]-1-naphthalenesulfonamide hydrochloride] | ++ |
| Nc1cccc2c(S(=O)(=O)NCc3cc(F)cc(F)c3)cccc12 [Compound 14, 5-amino-N-[(3,5-difluorophenyl)methyl]-1-naphthalenesulfonamide hydrochloride] | + |
| Nc1cccc2c(S(=O)(=O)NCc3ccc(OCc4ccccc4)cc3)cccc12 [Compound 36, 5-amino-N-[[4-(phenylmethoxy)phenyl]methyl]-1-naphthalenesulfonamide hydrochloride] | + |
